What was measured:
Assay type in all cases: cell-based
[1] = Cytotoxicity against human SF539 cell line; settings: SF-539 cells
[2] = Cytotoxicity against human SN12C cell line; settings: SN12C cells
[3] = Cytotoxicity against human MDA-MB-435 cell line; settings: MDA-MB-435 cells
[4] = Cytotoxicity against human HCT116 cell line; settings: HCT-116 cells
[5] = Cytotoxicity against human OVCAR-3 cell line; settings: OVCAR-3 cells
[6] = Cytotoxicity against human HOP62 cell line; settings: HOP-62 cells
[7] = Cytotoxicity against human DU145 cell line; settings: DU-145 cells
[8] = Cytotoxicity against human UACC62 cell line; settings: UACC-62 cells

| SMILES | GI50 [1] [µM] | GI50 [2] [µM] | GI50 [3] [µM] | GI50 [4] [µM] | GI50 [5] [µM] | GI50 [6] [µM] | GI50 [7] [µM] | GI50 [8] [µM] |
| --- | --- | --- | --- | --- | --- | --- | --- | --- |
| COc1cc2c(c(OC)c1OC)C(=O)c1c-2n(CCCN=[N+]=[N-])c(=O)c2cc([N+](=O)[O-])ccc12 | 38.9 | > 100 | > 100 | 36.3 | > 100 | 30.9 | > 100 | 39.8 |
| COc1ccc2c(c1)C(=O)c1c-2n(CCCCl)c(=O)c2cc([N+](=O)[O-])ccc12 | 0.027 | < 0.01 | 3.24 | 0.794 | 3.39 | 0.295 | 0.036 | < 0.01 |
| COc1cc2c(cc1OC)-c1c(c3ccc([N+](=O)[O-])cc3c(=O)n1CCCN=[N+]=[N-])C2=O | 36.3 | 46.8 | > 100 | 31.6 | > 100 | 29.5 | 87.1 | 51.3 |
| COc1cc2c(cc1OC)-c1c(c3ccc([N+](=O)[O-])cc3c(=O)n1CCCN)C2=O | 0.005 | 0.851 | 6.46 | 0.589 | 8.13 | 1.55 | 0.676 | 2.51 |
| COc1cc2c(c(OC)c1OC)-c1c(c3ccc([N+](=O)[O-])cc3c(=O)n1CCCN=[N+]=[N-])C2=O | 13.5 | 30.2 | > 100 | 14.1 | 45.7 | 15.5 | 70.8 | 32.4 |
| COc1ccc2c(c1)C(=O)c1c-2n(CCCN=[N+]=[N-])c(=O)c2cc([N+](=O)[O-])ccc12 | < 0.001 | – | 0.251 | < 0.001 | 0.155 | < 0.001 | < 0.001 | – |
| COc1cc2c(c(OC)c1OC)C(=O)c1c-2n(CCCN)c(=O)c2cc([N+](=O)[O-])ccc12 | 1.35 | 2.09 | 1.07 | 0.138 | 1.05 | 0.676 | 1.15 | 6.61 |
| COc1cc2c(c(OC)c1OC)-c1c(c3ccc([N+](=O)[O-])cc3c(=O)n1CCCBr)C2=O | 4.47 | 19.5 | > 100 | 18.6 | > 100 | 15.8 | – | 30 |
| COc1ccc2c(c1OC)-c1c(c3ccc([N+](=O)[O-])cc3c(=O)n1CCCBr)C2=O | – | 36.3 | – | 19.1 | > 100 | 21.9 | – | 18.2 |
| NCCCn1c2c(c3ccc([N+](=O)[O-])cc3c1=O)C(=O)c1cc3c(cc1-2)OCO3 | < 0.01 | < 0.01 | 0.025 | < 0.01 | 0.302 | < 0.01 | < 0.01 | 0.017 |
| COc1cccc2c1-c1c(c3ccc([N+](=O)[O-])cc3c(=O)n1CCCCl)C2=O | – | 15.8 | 50.1 | 2.45 | 50.1 | 5.5 | – | 2.4 |
| COc1cc2c(c(OC)c1OC)-c1c(c3ccc([N+](=O)[O-])cc3c(=O)n1CCCN)C2=O | 1.38 | 3.98 | 0.871 | 0.832 | 10.7 | 0.933 | 7.24 | 9.12 |
| COc1ccc2c(c1)C(=O)c1c-2n(CCCN)c(=O)c2cc([N+](=O)[O-])ccc12 | < 0.01 | < 0.01 | – | < 0.01 | – | < 0.01 | – | < 0.01 |
| COc1cc2c(cc1OC)-c1c(c3ccc([N+](=O)[O-])cc3c(=O)n1CCCBr)C2=O | 10.5 | 4.27 | 25.1 | 4.27 | 70.8 | 20.9 | 24.5 | 2.82 |
| COc1ccc2c(c1OC)-c1c(c3ccc([N+](=O)[O-])cc3c(=O)n1CCCN=[N+]=[N-])C2=O | 5.24 | 11.5 | 72.4 | 2.95 | 56.2 | 5.01 | 4.9 | 4.57 |
| COc1ccc2c(c1OC)-c1c(c3ccc([N+](=O)[O-])cc3c(=O)n1CCCN)C2=O | 1.35 | 0.977 | 9.12 | 1.51 | 14.1 | 8.32 | 0.832 | 1.1 |
| COc1cc2c(c(OC)c1OC)C(=O)[C@@H]1c3ccc([N+](=O)[O-])cc3C(=O)N(CCCBr)[C@H]21 (relative stereo) | 0.468 | 0.257 | < 0.01 | < 0.01 | < 0.01 | < 0.01 | 1.02 | < 0.01 |
| COc1cc2c(cc1OC)[C@@H]1[C@H](C2=O)c2ccc([N+](=O)[O-])cc2C(=O)N1CCCBr (relative stereo) | 11.7 | 7.59 | 2.82 | 4.57 | 2.04 | 13.8 | 14.5 | > 100 |

Source: ChEMBL document CHEMBL1138219 (J Med Chem, 2006)
